One data set concerns Klebsiella aerogenes 62. Nature of the data set: Antibacterial synergism MIC, microtiter method (Example 42). Type of data set: cell-based. As to conditions: unit not given; method of Example 42.
Data set [1] concerns Klebsiella aerogenes E 70. The description is as above. Type of data set: cell-based. As to conditions: unit not given; method of Example 42.
Data set [2] has as its system Klebsiella aerogenes A. The data set is described as above. Type of data set: cell-based. As to conditions: unit not given; method of Example 42.
A further data set concerns Proteus mirabilis C889. Nature of the data set: M.I.C. synergism with clavulanic acid methyl ester (Example 32). Type of data set: cell-based.
The subject of data set [3] is Staphylococcus aureus (Russell). The description is as above. Type of data set: cell-based.
Data set [4] relates to Klebsiella aerogenes A. Description: Growth inhibition, penicillins with and without synergist. The format is cell-based.
A further data set deals with Staphylococcus aureus. Nature of the data set: Antibacterial synergism MIC, microtiter method (Example 42). As to conditions: method of Example 42. Type of data set: cell-based.
The next data set deals with Bacillus subtilis A. Description: MIC, method of Example 30 with 1/100 dilution of overnight broth (Example 46).
Another data set deals with Staph. aureus Oxford. The data set is described as above. As to conditions: Staphylococcus aureus.
A further data set concerns Staph. aureus Russell. The description is as above. As to conditions: Staphylococcus aureus.
The test system of another data set is Escherichia coli 10418. Described as above.
The subject of the next data set is bacteria. Description: Tests for antibacterial activity in broth (Example 32). The format is cell-based.
Data set [5] in a line: Blood and tissue levels in female mice. The format is in vivo. As to conditions: oral administration of 100 mg/kg.
Another data set can be described thus: Stability in human blood. The format is in vitro ADME.

≈ marks a conversion by molar mass, not a printed value. Where a name gives a salt, the structure may show the parent alone.

Procedure for Bacillus subtilis A: (§1) The cultures were incubated overnight and the points of bacterial growth recorded next morning by observing the turbidity of the culture.
Procedure for Escherichia coli 10418: as §1
Procedure for Staph. aureus Oxford: as §1
Procedure for Staph. aureus Russell: as §1

Regarding `CC1(C)S[C@@H]2[C@H](NC(=O)[C@H](N)c3ccccc3)C(=O)N2[C@H]1C(=O)O` [Ampicillin, ampicillin], the “M.I.C., Ampicillin + 5 μg/ml of Benzyl Ester of clavulanic acid” value in the data set on Klebsiella aerogenes 62 stood at 3.9; in [1] it was 3.9; in the data set with Klebsiella aerogenes A [2] it was 1.9. For the same compound, the “M.I.C., Ampicillin + 5 μg/ml of Methyl Ester of clavulanic acid” value in the data set with Klebsiella aerogenes 62 was 3.9; in data set [1], 3.9; with Klebsiella aerogenes A [2], 1.9. Moreover, the “M.I.C. in the presence of 5 μg/ml. clavulanic acid methyl ester” value with Proteus mirabilis C889 was 31 µg/mL. Besides, the “M.I.C. in the presence of 1.0 μg/ml. clavulanic acid methyl ester” value in data set [3] was under 0.4 µg/mL.

`CC1(C)S[C@@H]2[C@H](NC(=O)Cc3ccccc3)C(=O)N2[C@H]1C(=O)O` [Benzylpenicillin, benzylpenicillin]: the “concentration inhibiting growth when 5 μg/ml. of clavulanic acid is also present” value with Klebsiella aerogenes A [4] is recorded as “less than 12.5 μg/ml”.

On to `O=C(Cc1cccs1)N[C@@H]1C(=O)N2C(C(=O)[O-])=C(C[n+]3ccccc3)CS[C@H]12` [Cephaloridine, cephaloridine], for which the “Minimum Inhibitory Concentration in presence of 5μg/ml clavulanic acid sodium salt” value in the data set with Staphylococcus aureus amounted to 3.7 µg/mL. In data set [3], the “M.I.C. in the presence of 1.0 μg/ml. clavulanic acid methyl ester” value is under 0.03 µg/mL.

For the compound `O=C1OC(OC(=O)[C@H]2/C(=C/CO)O[C@@H]3CC(=O)N32)c2ccccc21` (some centres unmarked) [Phthalidyl ester, Clavulanic Acid Phthalide Esters], the MIC in the data set on Bacillus subtilis A was 125 µg/mL (≈ 377 µM); in the data set with Staph. aureus Oxford, 31 µg/mL (≈ 93.6 µM); in the data set with Staph. aureus Russell it was 15 µg/mL (≈ 45.3 µM); with Escherichia coli 10418 it was 125 µg/mL (≈ 377 µM).

`O=C(OCc1ccccc1)[C@H]1/C(=C/CO)O[C@@H]2CC(=O)N21` [clavulanic acid benzyl ester, benzyl ester of 3-(β-hydroxyethylidine)-7-oxo-4-oxa-1-azabicyclo [3,2,0]heptane-2-carboxylic acid] gave an MIC in the data set with Escherichia coli 10418 of 125 µg/mL (≈ 432 µM).

For `COC(=O)[C@H]1/C(=C/CO)O[C@@H]2CC(=O)N21` [clavulanic acid methyl ester], in the data set with bacteria, the “antibacterial activity in broth” value was “broad spectrum activity but of a lower order than shown by clavulanic acid”.

With `O=C(O)[C@H]1/C(=C/CO)O[C@@H]2CC(=O)N21` [clavulanic acid sodium salt, 3-(β-hydroxyethylidine)-7-oxo-4-oxa-1-azabicyclo [3,2,0]heptane-2-carboxylic acid sodium salt], the MIC in the data set with Escherichia coli 10418 was found to be 125 µg/mL. Moreover, in data set [5], the “levels of clavulanic acid after oral administration” value is recorded as “useful levels”.

`O=C(O)[C@H]1/C(=C/CO)O[C@@H]2CC(=O)N21` [clavulanic acid, Z-(2R,5R)-3-(β-hydroxyethylidene)-7-oxo-4-oxa-1-azabicyclo[3,2,0]heptane-2-carboxylic acid]: in the data set “Stability in human blood”, the “stability in human blood” value was “high stability”.

In general, MIC refers to the lowest concentration that inhibits growth of the organism. A lower MIC goes with greater potency.
